Consider ten compounds from patent US6248736A, “4-oxo-1,4-dihydro-3-quinolinecarboxamides as antiviral agents” (Pharmacia & Upjohn Company, priority 1999, dated 2001).

Assay [1] has as its target HSV polymerase (Human herpesvirus 1, UniProt P04293). The assay is described as follows: HSV polymerase assay (procedure similar to the HCMV polymerase assay). It is filed as biochemical. As to the method: (§1) The HCMV polymerase assay is performed using a scintillation proximity assay (SPA) as described in several references, such as N. D. Cook, et al., Pharmaceutical Manufacturing International, pages 49-53 (1992); K. Takeuchi, Laboratory Practice, September issue (1992); U.S. Pat. No. 4,568,649 (1986); which are incorporated by reference herein. Reactions are performed in 96-well plates. The assay is conducted in 100 μl volume with 5.4 mM HEPES (pH 7.5), 11.7 mM KCl, 4.5 mM MgCl2, 0.36 mg/ml BSA, and 90 nM ^3 H-dTTP. Assays are run with and without CHAPS, (3-[(3-Cholamidopropyl)-dimethylammonio]-1-propane-sulfonate) at a final concentration of 2 mM. HCMV polymerase is diluted in enzyme dilution buffer containing 50% glycerol, 250 mM NaCl, 10 mM HEPES (pH 7.5), 100 μg/ml BSA, and 0.01% sodium azide. The HCMV polymerase, which is expressed in recombinant baculovirus-infected SF-9 cells and purified according to literature procedures, is added at 10% (or 10 μl) of the final reaction volume, i.e., 100 μl. Compounds are diluted in 50% DMSO and 10 μl are added to each well. Control wells contain an equivalent concentration of DMSO. Unless noted otherwise, reactions are initiated via the addition of 6 nM biotinylated poly(dA)-oligo(dT) template/primer to reaction mixtures containing the enzyme, substrate, and compounds of interest. Plates are incubated in a 25 C or 37 C H2 O bath and terminated via the addition of 40 μl/reaction of 0.5 M EDTA (pH 8) per well. Reactions are terminated within the time-frame during which substrate incorporation is linear and varied depending upon the enzyme and conditions used, i.e., 30 min. for HCMV polymerase. Ten μl of streptavidin-SPA beads (20 mg/ml in PBS/10% glycerol) are added following termination of the reaction. Plates are incubated 10 min. at 37 C, then equilibrated to room temperature, and counted on a Packard Topcount. Linear regressions are performed and IC50 's are calculated using computer software. […]

In assay [2] the target is VZV polymerase (Varicella-zoster virus, UniProt P09252). The assay is described as follows: VZV polymerase assay (procedure similar to the HCMV polymerase assay). It is filed as biochemical. Here is the method:
as §1

Assay [3] has as its target T1, HCMV polymerase (Human cytomegalovirus, UniProt P08546).
T1 construct: made in house; host or cells: recombinant baculovirus-infected SF-9 cells
The assay is described as follows: biochemical. Here is the method:
The HCMV polymerase assay is performed using a scintillation proximity assay (SPA) as described in several references, such as N. D. Cook, et al., Pharmaceutical Manufacturing International, pages 49-53 (1992); K. Takeuchi, Laboratory Practice, September issue (1992); U.S. Pat. No. 4,568,649 (1986); which are incorporated by reference herein. Reactions are performed in 96-well plates. The assay is conducted in 100 μl volume with 5.4 mM HEPES (pH 7.5), 11.7 mM KCl, 4.5 mM MgCl2, 0.36 mg/ml BSA, and 90 nM ^3 H-dTTP. Assays are run with and without CHAPS, (3-[(3-Cholamidopropyl)-dimethylammonio]-1-propane-sulfonate) at a final concentration of 2 mM. HCMV polymerase is diluted in enzyme dilution buffer containing 50% glycerol, 250 mM NaCl, 10 mM HEPES (pH 7.5), 100 μg/ml BSA, and 0.01% sodium azide. The HCMV polymerase, which is expressed in recombinant baculovirus-infected SF-9 cells and purified according to literature procedures, is added at 10% (or 10 μl) of the final reaction volume, i.e., 100 μl. Compounds are diluted in 50% DMSO and 10 μl are added to each well. Control wells contain an equivalent concentration of DMSO. Unless noted otherwise, reactions are initiated via the addition of 6 nM biotinylated poly(dA)-oligo(dT) template/primer to reaction mixtures containing the enzyme, substrate, and compounds of interest. Plates are incubated in a 25 C or 37 C H2 O bath and terminated via the addition of 40 μl/reaction of 0.5 M EDTA (pH 8) per well. Reactions are terminated within the time-frame during which substrate incorporation is linear and varied depending upon the enzyme and conditions used, i.e., 30 min. for HCMV polymerase. Ten μl of streptavidin-SPA beads (20 mg/ml in PBS/10% glycerol) are added following termination of the reaction. Plates are incubated 10 min. at 37 C, then equilibrated to room temperature, and counted on a Packard Topcount. Linear regressions are performed and IC50 's are calculated using computer software.
A modified version of the above HCMV polymerase assay is performed as described above, but with the following changes: Compounds are diluted in 100% DMSO until final dilution into assay buffer. In the previous assay, compounds are diluted in 50% DMSO. 4.5 mM dithiotherotol (DTT) is added to the polymerase buffer. […] Other viral polymerase assays are performed using procedures similar to those described above.

Setting [4] is: HCMV polymerase, modified SPA, compounds in 100% DMSO, 4.5 mM DTT added.

Where two headings read alike, the source gives them in different places.

T1 sequence (P08546 whole entry): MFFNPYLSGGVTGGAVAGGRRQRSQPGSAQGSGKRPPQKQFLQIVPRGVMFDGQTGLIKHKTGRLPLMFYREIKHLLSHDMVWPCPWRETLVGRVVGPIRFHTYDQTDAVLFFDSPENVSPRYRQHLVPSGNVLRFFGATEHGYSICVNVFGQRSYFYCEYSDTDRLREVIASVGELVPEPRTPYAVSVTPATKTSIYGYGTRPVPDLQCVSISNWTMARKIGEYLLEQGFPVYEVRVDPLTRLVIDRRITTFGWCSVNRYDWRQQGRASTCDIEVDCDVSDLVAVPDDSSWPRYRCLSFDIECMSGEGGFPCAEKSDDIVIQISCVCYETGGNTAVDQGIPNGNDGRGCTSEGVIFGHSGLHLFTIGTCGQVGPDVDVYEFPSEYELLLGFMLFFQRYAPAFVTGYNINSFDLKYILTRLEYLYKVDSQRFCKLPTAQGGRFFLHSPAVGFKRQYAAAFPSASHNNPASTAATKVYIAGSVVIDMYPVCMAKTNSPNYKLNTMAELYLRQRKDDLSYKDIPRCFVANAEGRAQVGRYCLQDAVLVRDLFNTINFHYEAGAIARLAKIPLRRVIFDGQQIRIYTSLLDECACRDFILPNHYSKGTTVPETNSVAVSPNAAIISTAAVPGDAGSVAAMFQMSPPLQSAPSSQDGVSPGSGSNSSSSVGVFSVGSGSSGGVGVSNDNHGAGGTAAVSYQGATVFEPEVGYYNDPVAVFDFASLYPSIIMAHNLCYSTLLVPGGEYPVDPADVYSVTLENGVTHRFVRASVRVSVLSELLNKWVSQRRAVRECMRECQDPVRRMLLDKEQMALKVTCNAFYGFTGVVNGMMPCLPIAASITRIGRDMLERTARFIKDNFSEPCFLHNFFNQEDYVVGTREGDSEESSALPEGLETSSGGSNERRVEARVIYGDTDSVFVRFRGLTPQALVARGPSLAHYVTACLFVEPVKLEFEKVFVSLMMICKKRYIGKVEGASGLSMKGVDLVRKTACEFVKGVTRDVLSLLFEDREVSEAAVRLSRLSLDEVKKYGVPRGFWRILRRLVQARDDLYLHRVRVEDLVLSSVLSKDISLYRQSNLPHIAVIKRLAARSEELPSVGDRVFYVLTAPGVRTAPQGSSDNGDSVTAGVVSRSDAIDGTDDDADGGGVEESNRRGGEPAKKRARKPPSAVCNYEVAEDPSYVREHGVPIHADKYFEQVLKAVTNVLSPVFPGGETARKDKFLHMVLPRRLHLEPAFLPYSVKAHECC
HSV polymerase, sequence (P04293 whole entry): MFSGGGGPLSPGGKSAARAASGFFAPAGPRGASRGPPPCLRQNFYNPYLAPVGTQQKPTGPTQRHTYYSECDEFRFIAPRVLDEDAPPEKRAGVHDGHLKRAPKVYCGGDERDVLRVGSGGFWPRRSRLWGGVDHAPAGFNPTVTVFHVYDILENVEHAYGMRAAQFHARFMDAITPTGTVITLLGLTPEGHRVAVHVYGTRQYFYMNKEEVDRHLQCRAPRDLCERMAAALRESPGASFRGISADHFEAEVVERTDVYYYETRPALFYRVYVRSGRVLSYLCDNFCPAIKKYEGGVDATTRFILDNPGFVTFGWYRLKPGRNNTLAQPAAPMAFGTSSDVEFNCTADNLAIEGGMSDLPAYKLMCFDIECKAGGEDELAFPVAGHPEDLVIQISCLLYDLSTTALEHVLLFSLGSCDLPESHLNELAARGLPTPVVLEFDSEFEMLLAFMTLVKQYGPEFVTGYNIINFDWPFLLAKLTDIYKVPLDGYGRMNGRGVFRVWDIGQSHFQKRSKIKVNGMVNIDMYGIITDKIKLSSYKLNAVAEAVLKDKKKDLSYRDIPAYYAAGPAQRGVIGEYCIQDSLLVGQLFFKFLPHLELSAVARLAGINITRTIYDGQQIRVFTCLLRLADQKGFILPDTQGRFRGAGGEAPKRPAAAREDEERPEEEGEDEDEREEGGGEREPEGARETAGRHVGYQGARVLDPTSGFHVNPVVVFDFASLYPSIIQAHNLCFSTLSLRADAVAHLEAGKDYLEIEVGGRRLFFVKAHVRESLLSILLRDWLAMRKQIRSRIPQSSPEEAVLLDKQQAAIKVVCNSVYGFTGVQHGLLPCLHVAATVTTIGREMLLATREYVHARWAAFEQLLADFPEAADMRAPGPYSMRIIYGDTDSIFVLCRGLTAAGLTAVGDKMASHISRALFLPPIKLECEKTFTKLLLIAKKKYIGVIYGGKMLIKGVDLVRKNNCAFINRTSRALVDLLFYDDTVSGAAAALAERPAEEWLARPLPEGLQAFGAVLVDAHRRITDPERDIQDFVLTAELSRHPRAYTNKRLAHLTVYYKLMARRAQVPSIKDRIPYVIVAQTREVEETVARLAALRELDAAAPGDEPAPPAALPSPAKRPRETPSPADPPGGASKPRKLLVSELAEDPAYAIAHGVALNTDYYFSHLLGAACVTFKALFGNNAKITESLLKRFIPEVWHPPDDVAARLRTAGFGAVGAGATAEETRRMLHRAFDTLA
VZV polymerase, sequence (P09252 whole entry): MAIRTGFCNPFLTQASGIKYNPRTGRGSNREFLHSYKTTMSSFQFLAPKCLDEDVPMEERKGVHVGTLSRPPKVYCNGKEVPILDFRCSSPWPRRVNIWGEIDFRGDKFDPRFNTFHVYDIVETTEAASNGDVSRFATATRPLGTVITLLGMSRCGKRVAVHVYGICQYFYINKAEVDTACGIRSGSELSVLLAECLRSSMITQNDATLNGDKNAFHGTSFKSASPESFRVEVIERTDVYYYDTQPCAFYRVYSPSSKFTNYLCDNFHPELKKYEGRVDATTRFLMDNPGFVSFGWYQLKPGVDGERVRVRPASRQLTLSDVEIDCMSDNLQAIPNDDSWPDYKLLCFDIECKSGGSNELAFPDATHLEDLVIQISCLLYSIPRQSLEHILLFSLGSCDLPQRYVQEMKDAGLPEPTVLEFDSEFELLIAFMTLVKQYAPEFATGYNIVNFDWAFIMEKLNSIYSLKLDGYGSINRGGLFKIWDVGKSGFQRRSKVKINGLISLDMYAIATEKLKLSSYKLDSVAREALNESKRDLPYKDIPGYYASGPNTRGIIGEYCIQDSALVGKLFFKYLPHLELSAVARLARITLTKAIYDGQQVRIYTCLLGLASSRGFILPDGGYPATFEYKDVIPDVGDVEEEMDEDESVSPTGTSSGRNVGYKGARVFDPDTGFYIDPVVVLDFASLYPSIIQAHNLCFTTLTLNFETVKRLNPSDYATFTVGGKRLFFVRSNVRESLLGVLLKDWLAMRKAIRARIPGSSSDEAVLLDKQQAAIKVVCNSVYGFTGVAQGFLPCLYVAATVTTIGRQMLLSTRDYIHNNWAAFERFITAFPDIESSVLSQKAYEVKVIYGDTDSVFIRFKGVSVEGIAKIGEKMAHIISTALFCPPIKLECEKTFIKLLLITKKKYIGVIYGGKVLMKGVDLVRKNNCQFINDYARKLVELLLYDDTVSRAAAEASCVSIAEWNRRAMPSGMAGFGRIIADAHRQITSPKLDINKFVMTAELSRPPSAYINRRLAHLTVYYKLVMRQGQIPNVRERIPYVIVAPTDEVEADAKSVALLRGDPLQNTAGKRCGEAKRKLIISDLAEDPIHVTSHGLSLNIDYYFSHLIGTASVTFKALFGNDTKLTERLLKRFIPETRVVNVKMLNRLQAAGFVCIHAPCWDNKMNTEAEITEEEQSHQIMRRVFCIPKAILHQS

One may read the IC50 as the midpoint of a concentration-inhibition curve. Low readings indicate greater potency in that assay, high ones weaker potency in that assay. Take `Cn1cc(C(=O)NCc2ccc(Cl)cc2)c(=O)c2cc(CCCO)ccc21` [Example 5, N-(4-Chlorobenzyl)-6-(3-hydroxypropyl)-1-methyl-4-oxo-1,4-dihydro-3-quinolinecarboxamide]: the half-maximal inhibitory concentration (IC50) in assay [1] came to 320 nM; in assay [2], 410 nM; in assay [3] (setting [4]), 480 nM.
Compound `Cn1cc(C(=O)NCc2ccc(Cl)cc2)c(=O)c2cc(CN3CCOCC3)cc(F)c21` [Example 10, N-(4-chlorobenzyl)-8-fluoro-1-methyl-6-(4-morpholinylmethyl)-4-oxo-1,4-dihydro-3-quinolinecarboxamide] came in with a half-inhibitory concentration (IC50) in assay [3] of 1000 nM.
In assay [3] (setting [4]), `O=C(NCc1ccc(Cl)cc1)c1cn(CCO)c2ccc(CCCO)cc2c1=O` [Example 4, N-(4-Chlorobenzyl)-1-(2-hydroxyethyl)-6-(3-hydroxypropyl)-4-oxo-1,4-dihydro-3-quinolinecarboxamide] registered an IC50 of 370 nM.
In the case of `Cn1cc(C(=O)NCc2ccc(Cl)cc2)c(=O)c2cc(C(C)(C)CCO)ccc21` [Example 1, N-(4-chlorobenzyl)-6-(3-hydroxy-1,1-dimethylpropyl)-1-methyl-4-oxo-1,4-dihydro-3-quinolinecarboxamide], the IC50 was determined as 1800 nM in assay [1], 2000 nM in assay [2] and 500 nM in assay [3] (setting [4]).
`Cn1cc(C(=O)NCc2ccc(Cl)cc2)c(=O)c2cc(CO)ccc21` [Example 2, N-(4-Chlorobenzyl)-6-(hydroxymethyl)-1-methyl-4-oxo-1,4-dihydro-3-quinolinecarboxamide] came in with an IC50 in assay [3] (setting [4]) of 7800 nM.
For `Cn1cc(C(=O)NCc2ccc(Cl)cc2)c(=O)c2cc(CN3CCOCC3)ccc21` [Example 3, N-(4-Chlorobenzyl)-1-methyl-6-(4-morpholinylmethyl)-4-oxo-1,4-dihydro-3-quinolinecarboxamide], the IC50 was found to be 740 nM in assay [1], 440 nM in assay [2] and 400 nM in assay [3] (setting [4]).
In assay [3] (setting [4]), `Cn1cc(C(=O)NCc2ccc(Cl)cc2)c(=O)c2cc(CN3CCS(=O)(=O)CC3)ccc21` [Example 8, N-(4-chlorobenzyl)-6-[(1,1-dioxo-1',4-thiazinan-4-yl)methyl]-1-methyl-4-oxo-1,4-dihydro-3-quinolinecarboxamide] came in with an IC50 of 2600 nM.
Compound `Cn1cc(C(=O)NCc2ccc(Cl)cc2)c(=O)c2cc(CN3CC[S+]([O-])CC3)ccc21` [Example 9, N-(4-chlorobenzyl)-1-methyl-4-oxo-6-[(1-oxo-1',4-thiazinan-4-yl)methyl]-1,4-dihydro-3-quinolinecarboxamide] displayed an IC50 in assay [3] (setting [4]) of 4700 nM.
In turn, `CC(C)(C)n1cc(C(=O)NCc2ccc(Cl)cc2)c(=O)c2cc(CCCO)ccc21` [Example 6, 1-(tert-Butyl)-N-(4-chlorobenzyl)-6-(3-hydroxypropyl)-4-oxo-1,4-dihydro-3-quinolinecarboxamide] yielded an IC50 in assay [3] of 2800 nM.
The compound `Cn1cc(C(=O)NCc2ccc(Cl)cc2)c(=O)c2cc(CN3CCSCC3)ccc21` [Example 7, N-(4-Chlorobenzyl)-1-methyl-4-oxo-6-(4-thiomorpholinyl-methyl)-1,4-dihydro-3-quinolinecarboxamide] yielded an IC50 in assay [3] (setting [4]) of 2500 nM.
